Measured values from patent US8206764B2, “Black soybean hull extract, method for obtaining, and use thereof” (Beijing Gingko-Group Biological Technology Co., Ltd., priority 2006, dated 2012).

Test: clearance of hydroxyl free radicals, orthophenanthroline Fe2+ oxidation method
Format: biochemical
Set-up: Clearance rate of •OH (d): unit not given here
Conditions: for Clearance rate of •OH (d): n = 5
Source text: Materials and methods-test drug and reagent: Extract of black soybean hull A (containing cyanidin 12.52%, catechin 13.50%, and OPC 54.01%). Orthophenanthroline, hydrogen peroxide, ascorbic acid (VC), and FeSO4.7H2O were all analytical pure reagents made in China. Materials and Methods-instruments: An LSY constant temperature water bath was obtained from a Beijing medical instrument manufacturer, and a UV-2000 spectrophotometer was from […], Shanghai Instrument Co., Ltd.). Test method-reagent preparation: Reagents included 0.1% H2O[…]), a 5 mmol/L anhydrous ethanol solution of orthophenanthroline, 0.75 mmol/L FeSO4, a 0.2 mmol/L phosphoric acid buffer solution (PBS; pH=7.4), BSHE A, prepared with double distilled water and diluted to concentrations of 0.5, 0.25, 0.125, and 0.0625 mg/ml, and ascorbic acid, prepared at concentrations of 4, 2, 1, and 0.5 mg/ml with double distilled water. Test method-measuring hydroxyl free radicals: The clearing of hydroxyl free radicals was tested using an orthophenanthrolin Fe^2+ oxidation method to further evaluate the anti-oxidation capacity of BSHE A. (1) 2 ml PBS, the test drug at the concentrations listed above, and 1 ml ascorbic acid were sequentially added to a disposable 10 ml polyethylene test tube and shaken. 0.35 ml of 5 mmol/L orthophenanthroline solution and 1 ml 0.75 mmol/L FeSO4 were added and mixed fully. 1 ml of 0.1% H2O2 was added, and the tube was vibrated for 1 minute. […] (2) The 1 ml of test drug in (1) was replaced with 1 ml deionized water, while the other conditions were the same as in (1). The absorbency value Ab was measured. (3) The 1 ml H2O2 in (2) was replaced with 1 ml deionized water, while the other conditions were the same as in (2). The absorbency value Ac was measured. (4) The clearance rate (d) of .OH by the test drug and the positive comparison was calculated according to the following equation: [formula] The total volume of reaction was 5.35 ml. The final concentrations of ascorbic acid thus were 0.748 mg/ml, 0.374 mg/ml, 0.187 mg/ml, and 0.093 mg/ml, while the final concentrations of BSHE A were 0.093 mg/ml, 0.047 mg/ml, 0.023 mg/ml, and 0.012 mg/ml. Five samples were tested in each group. The clearance rate of .OH was calculated individually and then average values were calculated.

IC50 of hydroxyl free radical clearance (from fitted line): 401.4 µg/mL
Structure (SMILES): O=C1O[C@H]([C@@H](O)CO)C(O)=C1O [ascorbic acid]
Clearance rate of •OH (d) (final concentration 0.093 mg/ml): 0.212 ± 2.47
Clearance rate of •OH (d) (final concentration 0.187 mg/ml): 4.21 ± 1.32
Clearance rate of •OH (d) (final concentration 0.374 mg/ml): 50.32 ± 4.29
Clearance rate of •OH (d) (final concentration 0.748 mg/ml): 91.29 ± 3.26
